Data on seven compounds can be found in PMC5971447, “Selective inhibition of intestinal guanosine 3′,5′-cyclic monophosphate signaling by small-molecule protein kinase inhibitors” (The Journal of Biological Chemistry, 2018).

Each structure is given as a SMILES string.

Test [1] concerns the target T1, cGKII (Homo sapiens, UniProt Q13237).
T1 construct: gene PRKG2; recombinant full-length, His-tagged, baculovirus insect cell expression; dimer
T1 sequence (Q13237 2-762): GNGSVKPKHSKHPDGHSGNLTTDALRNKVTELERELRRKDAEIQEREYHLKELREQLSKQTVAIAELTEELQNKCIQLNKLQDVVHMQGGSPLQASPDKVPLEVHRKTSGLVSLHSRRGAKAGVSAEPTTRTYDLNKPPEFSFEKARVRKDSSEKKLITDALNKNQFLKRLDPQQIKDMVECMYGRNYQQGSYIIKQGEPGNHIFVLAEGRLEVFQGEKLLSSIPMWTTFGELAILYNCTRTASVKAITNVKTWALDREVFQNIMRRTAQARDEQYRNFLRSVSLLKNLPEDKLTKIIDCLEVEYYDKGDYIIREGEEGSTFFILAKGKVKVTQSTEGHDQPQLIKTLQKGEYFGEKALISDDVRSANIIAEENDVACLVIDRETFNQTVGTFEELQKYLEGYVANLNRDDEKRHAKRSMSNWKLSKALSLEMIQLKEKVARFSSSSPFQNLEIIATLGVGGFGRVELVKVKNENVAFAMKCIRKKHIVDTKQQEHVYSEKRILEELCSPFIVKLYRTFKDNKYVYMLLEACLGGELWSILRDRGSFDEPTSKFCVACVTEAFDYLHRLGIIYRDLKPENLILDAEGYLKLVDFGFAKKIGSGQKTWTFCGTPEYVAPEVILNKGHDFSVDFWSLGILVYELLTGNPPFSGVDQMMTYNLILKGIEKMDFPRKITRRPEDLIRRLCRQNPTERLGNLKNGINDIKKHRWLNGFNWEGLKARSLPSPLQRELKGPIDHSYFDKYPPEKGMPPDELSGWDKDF
The test is described as follows: […]-ATP peptide (2A3) phosphorylation. Conditions: read-out: pIC50 in vitro (converted). In kind it is biochemical.

Test [2] addresses T2, cGKI (Homo sapiens, UniProt Q13976).
T2 construct: gene PRKG1; recombinant full-length, commercial (Promega)
T2 sequence (Q13976 2-671): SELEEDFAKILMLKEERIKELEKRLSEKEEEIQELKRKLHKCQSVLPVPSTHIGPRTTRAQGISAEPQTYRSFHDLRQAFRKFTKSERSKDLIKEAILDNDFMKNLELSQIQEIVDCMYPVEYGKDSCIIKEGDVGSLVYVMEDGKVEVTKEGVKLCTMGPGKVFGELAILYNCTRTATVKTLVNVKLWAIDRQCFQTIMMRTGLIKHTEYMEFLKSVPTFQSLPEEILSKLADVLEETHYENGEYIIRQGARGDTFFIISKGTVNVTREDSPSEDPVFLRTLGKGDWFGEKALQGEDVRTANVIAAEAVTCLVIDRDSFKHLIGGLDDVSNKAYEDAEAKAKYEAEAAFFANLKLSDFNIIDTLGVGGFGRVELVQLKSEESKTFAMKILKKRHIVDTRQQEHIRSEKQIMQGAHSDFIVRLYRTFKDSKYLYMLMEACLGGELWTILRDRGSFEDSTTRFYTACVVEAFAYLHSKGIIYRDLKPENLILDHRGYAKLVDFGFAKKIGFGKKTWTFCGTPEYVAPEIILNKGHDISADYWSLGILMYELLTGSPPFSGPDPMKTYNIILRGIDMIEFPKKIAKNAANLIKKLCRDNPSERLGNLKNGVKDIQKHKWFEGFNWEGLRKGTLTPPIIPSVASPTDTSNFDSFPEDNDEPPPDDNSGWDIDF
The test is described as follows: […]-ATP peptide (2A3) phosphorylation. It is filed as biochemical. Conditions: 50 uM cGMP, pH 7.4, 5 mM MgCl2, 22 C.

`COc1ccc(CCNc2nccc(-c3ccc4c(c3)OCCO4)n2)cc1OC` [AP-C3]: the IC50 in test [1] was 501 nM.

On to `COc1ccc(CCNc2nccc(-c3ccc4ccccc4c3)n2)cc1OC` [AP-C1], for which the IC50 in test [1] is 316 nM.

In the case of `C#CCNc1nccc(-c2ccc(-n3ccnc3)cc2)n1` [AP-C5], the pIC50 result in test [2] was “potency of inhibition of cGKI and PKA was markedly lower than of cGKII”. In addition, the IC50 in test [1] was 63.1 nM.

As to `c1coc(CNc2nccc(-c3ccc(-n4ccnc4)cc3)n2)c1` [AP-C7], in test [1], the IC50 is 10000 nM.

As to `c1ccc2c(CCNc3nccc(-c4ccc5c(c4)OCCO5)n3)c[nH]c2c1` [AP-C4], the IC50 in test [1] was 6310 nM.

`c1csc(-c2ccnc(NCCc3c[nH]c4ccccc34)n2)c1` [AP-C2]: the IC50 in test [1] was 6310 nM.

For `OCCNc1nccc(-c2ccc(-n3ccnc3)cc2)n1` [AP-C6], the pIC50 entry in test [2] was “potency of inhibition of cGKI and PKA was markedly lower than of cGKII”. Also, the IC50 in test [1] was 316 nM.
